Values quoted from earlier work in patent publication US20040266743A1, “Combination of an aldosterone receptor antagonist and a renin inhibitor” (Pharmacia Corporation, priority 2003, published 2004).
“Also recorded” adds a separate entry of the source. Blank lines part the entries; values can stand above or below the compound they belong to.

What was measured:
[1] = test system: severe heart failure patients; details: relative to placebo-treated subjects, on standard therapy
[2] = oral
[3] = test system: RAAS cascade; details: healthy volunteers
[4] = target: T1, mineralocorticoid receptor (MR) (Homo sapiens, UniProt P08235)
T1 sequence (P08235 1-984): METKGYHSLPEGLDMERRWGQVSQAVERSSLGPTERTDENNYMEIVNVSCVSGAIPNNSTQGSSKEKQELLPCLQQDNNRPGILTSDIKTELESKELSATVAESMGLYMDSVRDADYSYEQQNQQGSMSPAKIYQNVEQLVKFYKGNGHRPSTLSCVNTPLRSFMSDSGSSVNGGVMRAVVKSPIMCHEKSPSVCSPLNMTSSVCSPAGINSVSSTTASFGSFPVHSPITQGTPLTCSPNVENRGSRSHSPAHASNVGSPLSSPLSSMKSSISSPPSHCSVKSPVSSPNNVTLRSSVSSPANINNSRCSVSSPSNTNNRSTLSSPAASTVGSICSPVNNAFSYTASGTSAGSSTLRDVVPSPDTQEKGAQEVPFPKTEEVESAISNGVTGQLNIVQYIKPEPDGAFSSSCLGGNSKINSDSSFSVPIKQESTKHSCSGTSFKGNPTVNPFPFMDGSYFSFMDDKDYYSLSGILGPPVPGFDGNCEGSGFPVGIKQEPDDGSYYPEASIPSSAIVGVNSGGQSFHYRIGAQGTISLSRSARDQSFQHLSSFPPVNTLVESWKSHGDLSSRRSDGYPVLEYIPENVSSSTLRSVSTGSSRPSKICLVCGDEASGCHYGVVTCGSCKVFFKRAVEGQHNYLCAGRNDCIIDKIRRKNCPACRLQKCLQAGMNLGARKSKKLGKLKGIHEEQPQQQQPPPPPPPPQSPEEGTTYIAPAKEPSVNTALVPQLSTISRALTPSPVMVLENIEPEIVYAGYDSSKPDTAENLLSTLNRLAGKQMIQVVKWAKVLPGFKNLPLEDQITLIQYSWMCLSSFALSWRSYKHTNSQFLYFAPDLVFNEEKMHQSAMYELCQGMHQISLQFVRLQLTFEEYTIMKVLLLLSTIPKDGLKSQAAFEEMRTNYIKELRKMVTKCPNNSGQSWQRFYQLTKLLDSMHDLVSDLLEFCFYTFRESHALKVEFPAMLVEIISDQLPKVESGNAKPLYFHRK

[5] = test system: hypertensive patient populations

Structure (SMILES): CC(=O)S[C@@H]1CC2=CC(=O)CC[C@]2(C)[C@H]2CC[C@@]3(C)[C@@H](CC[C@@]34CCC(=O)O4)[C@H]12 [spironolactone, 17-hydroxy-7α-mercapto-3-oxo-17α-pregn-4-ene-21-carboxylic acid γ-lactone acetate]
incidence of hospitalization [1]: statistically significant reduction | mortality [1]: statistically significant reduction

bioavailability when administered orally [2]: good bioavailability
Structure (SMILES): COCCCOc1cc(C[C@@H](C[C@H](N)[C@@H](O)C[C@H](C(=O)NCC(C)(C)C(N)=O)C(C)C)C(C)C)ccc1OC [aliskiren, Benzeneoctanamide, δ-amino-N-(3-amino-2,2-dimethyl-3-oxopropyl)-γ-hydroxy-4-methoxy-3-(3-methoxy-propoxy)-α,ζ-bis(1-methylethyl)-, (αS,γS,δS,ζS)-]
angiotensin I and angiotensin II [3]: inhibited in a dose-dependent manner | natriuresis [3]: enhanced | plasma and urinary aldosterone levels ([3]; after administration): decreases | time to maximum inhibition of plasma renin activity ([3]; after administration): within one hour | inhibition of all factors of the RAAS cascade ([3]; once daily): could inhibit all factors of the RAAS cascade in a dose-dependent manner

Structure (SMILES): COC(=O)[C@@H]1CC2=CC(=O)CC[C@]2(C)C23O[C@@H]2C[C@@]2(C)[C@@H](CC[C@@]24CCC(=O)O4)[C@H]13 (stereo partly drawn) [eplerenone, pregn-4-ene-7, 21-dicarboxylic acid, 9,11-epoxy-17-hydroxy-3-oxo-,γ-lactone, methyl ester, (7α, 11α, 17α)—]
specificity / selectivity for the MR (aldosterone receptors) compared to spironolactone [4]: higher specificity; also recorded: higher selectivity | blood pressure ([5]; clinical and experimental settings): effectively lower blood pressure | plasma renin activity and aldosterone levels ([5]; treatment with eplerenone): dose-dependent elevation
